Results from patent publication US20130196935A1, “SYNTHETIC GLYCOAMINE COMPOUNDS” (ANIMAL CELL THERAPIES INC., priority 2012, published 2013).
Where “and” joins values, the source holds several entries; their conditions need not be identical. Equal entries are not always repeated.

Columns and labels:
Format in all cases: cell-based
SVR cells [1] = experiment: MTS cytotoxicity assay on SVR cells; settings: for significance level P, cytotoxic effect on SVR cells compared to the control: 8 mM, two-tailed t-test; for cytotoxic effect on SVR cells: only at 8 mM, 48 hours, MTS
Protocol: (§1) 1. Testing concentrations of ACT-1 and ACT-2: 8 mM, 4 mM, 2 mM, 1 mM, 0.5 mM, 0.25 mM and 0.125 mM. 2. Trypsinized exponentially growing BAECs (P1) and SVR cells (P4), and prepared 5×10^4 cells/mL cell solution for BAECs and […] for SVR cells. Add 100 μl of cell solution to 96-well plates to achieve 5,000 cells/well for BAECs and 1,000 cells/well for SVR cells. Incubated cells at 37° C. overnight. 3. Prepared 8 mM=3.64 mg/mL and 8 mM ACT-2=3.62 mg/mL in BAEC complete culture medium. Sterilized the drug solutions by filtering through 0.2 μm syringe filters. 4. Prepared 2× serial dilutions from 8 mM stock solution by mixing 0.6 mL drug solution with 0.6 mL culture medium. 5. Aspirated medium from wells and added 80 μl of test article solutions to the wells according to the layout below.
(§2) 6. Incubated cells at 37° C. for 48 hours. 7. Aspirated the medium from wells and added fresh 70 μl culture medium to the wells. 8. Prepared MTS reagent (Promega CellTiter 96 Aqueous MTS assay reagents, Cat #G5421) by mixing 2.4 mL MTS, 120 μl PMS and 3.779 mL culture medium. Added 50 μl MTS assay reagent to the wells using a multiple channel pipette. 9. Incubate at 37° C. for 2 hours. Read absorbance at 490 nm using a plate reader.

[2] = MTS cytotoxicity assay on SVR cells; settings: mouse, SVR cells, 48 hours, MTS, read-out: Viability of SVR cells compared to control, Ave (%)
Protocol: as §1, §2

SVR cells [3] = experiment: TUNEL assay, apoptosis induction of SVR cells; settings: 2 mM, 24 hours
Protocol: 1. Testing concentrations of ACT-1 and ACT-2: 2 mM. 2. Prepared 4 mM ACT-1=1.82 mg/mL and 4 mM ACT-2=1.81 mg/mL in complete culture medium. Sterilized the drug solutions by filtering through 0.2 μm syringe filters. 3. Added 100 μl of test articles or culture medium to 4 wells for each ACT-1 and ACT-2 in a 96-well plate. Added 100 μl of culture medium to 5 wells (for non-treated and DNase treatment controls). 4. Trypsinized SVR cells (P3) and prepared 5×10^3 cells/mL solution in culture medium. Added 100 μl of cell solution to each well (500 cells/well). Mixed well by gentle pipetting. 5. Incubated at 37° C. for 24 hours. 6. Removed medium and added 100 μl of 4% PFA in PBS to the wells. Incubated at room temperature for 15 min. 7. Removed PFA solution and 100 μl of permeabilization reagent (0.25% Triton X-100 in PBS) (Triton X-100: Sigma Cat #: T8787-100ML). Incubated at room temperature for 20 min. Washed twice with deionized water. 8. TUNEL reaction was then carried out exactly as the protocol provided by the kit (Invitrogen Click-iT TUNEL Alexa Fluor Imaging Assay Kit, Cat #: C10245). Treated one well (culture medium control) with DNase as positive control for the TUNEL reaction. The reaction volume for each well was 50 μl. 9. After TdT and Click-iT reactions, DNA was stained with Hoechst 33342 (provided by the kit) 1:5,000 in PBS at RT for 15 min. Washed wells three times with PBS. 10. […]

[4] = system: primary bovine aortic endothelial cells (BAEC); experiment: MTS cytotoxicity assay on primary BAEC; settings: 0.125-8 mM, 48 hours
Protocol: as §1, §2

SVR cells [5] = experiment: Clonogenic survival (colony formation) of SVR cells; settings: for Colony # (single well): 200 SVR cells per well; for Colony # Average: average of 4 wells; for inhibition of colony formation compared to the control: two-tailed t-test; for inhibition of SVR cell colony formation: concentrations 1 mM and higher, compared to control
Protocol: 1. Testing concentrations of ACT-1 and ACT-2: 1 mM, 500 μM, 250 μM, 125 μM, and 62.5 μM. 2. Prepared 2 mM ACT-1=0.91 mg/mL and 2 mM ACT-2=0.91 mg/mL in SVR complete culture medium. Sterilized the test article solutions by filtering through 0.2 μm syringe filters (Whatman Puradisc 25 mm, Cat #6780-2502). 3. Prepared solutions in 2× testing concentrations (2 mM, 1 mM, 500 μM, 250 μM, 125 μM and 62.5 μM) by preparing 2× dilution from 2 mM stock solution (mixing 2.4 mL culture medium with 2.4 mL of 2 mM solution, and make serial 2× dilutions the same way). 4. Pipetted 0.5 mL of test articles to 24-well plates according to the layout below (ACT-1 in one plate and ACT-2 in another plate). Each concentration will be tested in quadruplicate.
5. Trypsinized SVR cells (P1) and prepared 400 cells/mL solution in culture medium. Pipetted 0.5 mL cell solution to each well (200 cells/well). Mixed well by gentle pipetting. 6. Cultured cells at 37° C. incubator for 6 days. 7. Aspirated medium from the wells. Rinsed cells once with 1 mL of PBS (LONZA, Cat #: 17-516Q). 8. Fixed cells with 0.5 mL of freshly prepared 4% paraformaldehyde (PFA) (1:8 dilution of 32% PFA solution in PBS; 32% PFA solution: Electron Microscopy Sciences Cat #:15714) in PBS at RT for 20 min. Removed PFA and washed cells once with 1 mL PBS. 9. Stained cells with 0.3 mL of Mayer's hematoxylin solution (Sigma Cat#: MHS1-100ML) at RT for 15 min. Removed hematoxylin solution and rinsed cells twice with 1 mL of warm tap water. 10. Counted cell colonies under microscope with 40× magnification (divide the wells with makers into 4 sections. Count the numbers of colonies from each section and add the numbers to yield the final colony numbers).
1. Testing concentrations of ACT-1 and ACT-2: 4 mM, 2 mM, 1 mM, and 0.5 mM. 2. The experimental procedures were the same as in Experiment 1-1, except that the total volume in each well was 0.6 mL (0.3 mL of 2× concentrated test articles and 0.3 mL of 667 cells/mL cell solution).
3. Cultured cells at 37° C. incubator for 6 days. 4. Visualized the cell colonies by staining with hematoxylin as described above. 5. Counted the colonies under microscope.

[6] = Experiment A, 62.5 μM, six days after treatment
[7] = Experiment A, 62.5 μM, six days
[8] = Experiment A, 125 μM, six days after treatment
[9] = Experiment A, 250 μM, six days after treatment
[10] = Experiment A, 500 μM, six days after treatment
[11] = Experiment A, 1000 μM, six days after treatment
[12] = Experiment A, 1000 μM, six days
[13] = Experiment B (higher concentrations), 0.5 mM, six days
[14] = Experiment B (higher concentrations), 1 mM, six days
[15] = Experiment B (higher concentrations), 2 mM, six days
[16] = Experiment B (higher concentrations), 4 mM, six days

Row | SMILES | significance level P, cytotoxic effect on SVR cells compared to the control (SVR cells [1]) | cytotoxic effect on SVR cells (SVR cells [1]) | viability at 48 h, 0.125 mM [2] [%] | viability at 48 h, 0.25 mM [2] [%] | viability at 48 h, 0.5 mM [2] [%] | viability at 48 h, 1 mM [2] [%] | viability at 48 h, 2 mM [2] [%] | viability at 48 h, 4 mM [2] [%] | viability at 48 h, 8 mM [2] [%] | TUNEL nuclear staining (apoptosis induction) (SVR cells [3]) | cytotoxic effect on primary BAECs [4] | Colony # (single well) (SVR cells [5]; [6]) | Colony # Average (SVR cells [5]; [7]) | Colony # (single well) (SVR cells [5]; [8]) | Colony # Average (SVR cells [5]; Experiment A, 125 μM, six days) | Colony # (single well) (SVR cells [5]; [9]) | Colony # Average (SVR cells [5]; Experiment A, 250 μM, six days) | Colony # (single well) (SVR cells [5]; [10]) | Colony # Average (SVR cells [5]; Experiment A, 500 μM, six days) | Colony # (single well) (SVR cells [5]; [11]) | further results
1 | CC(C)CC(NC[C@@]1(O)OC[C@@H](O)[C@@H](O[C@@H]2O[C@H](CO)[C@H](O)[C@H](O)[C@H]2O)[C@@H]1O)C(=O)O (stereo in doubt) [ACT-1] | 0.016 | significant cytotoxic effect | 97.4 | 99.7 | 100 | 97.7 | 95.8 | 93.1 | 71.2 | nuclear staining was not observed | did not show significant cytotoxic effect | 43 and 42 and 41 and 39 | 41.3 | 44 and 41 and 39 | 40.8 | 43 and 40 and 41 and 34 | 39.5 | 42 and 41 and 33 | 39.3 | 34 and 32 | Colony # Average (SVR cells [5]; [12]): 33.0; inhibition of colony formation compared to the control (SVR cells [5]; Experiment A, 1 mM): significant inhibition of colony formation; Colony # (single well) (SVR cells [5]; [13]): 40 and 45 and 35; Colony # (single well) (SVR cells [5]; [14]): 38 and 32 and 33 and 34; Colony # (single well) (SVR cells [5]; [15]): 1 and 2; Colony # (single well) (SVR cells [5]; [16]): 0; Colony # Average (SVR cells [5]; Experiment B, 0.5 mM, six days): 40.0; Colony # Average (SVR cells [5]; Experiment B, 1 mM, six days): 34.3; Colony # Average (SVR cells [5]; Experiment B, 2 mM, six days): 1.8; Colony # Average (SVR cells [5]; Experiment B, 4 mM, six days): 0.0; inhibition of SVR cell colony formation (SVR cells [5]; Experiment B): inhibited SVR cell colony formation
2 | O=C(O)[C@H](CC1CC1)NC[C@@]1(O)OC[C@@H](O)[C@@H](O[C@@H]2O[C@H](CO)[C@H](O)[C@H](O)[C@H]2O)[C@@H]1O [ACT-2] | 0.018 | significant cytotoxic effect | 98.2 | 105 | 98.7 | 92.5 | 95.1 | 87.8 | 76.1 | nuclear staining was not observed | did not show significant cytotoxic effect | 49 and 51 and 43 and 48 | 47.8 | 44 and 42 and 39 | 41.8 | 50 and 44 and 39 and 37 | 42.5 | 39 and 31 and 33 and 35 | 34.5 | 33 and 36 and 39 and 28 | inhibition of colony formation compared to the control (SVR cells [5]; Experiment A, 0.5 mM): significant inhibition of colony formation; Colony # Average (SVR cells [5]; [12]): 34.0; Colony # (single well) (SVR cells [5]; [13]): 38 and 34 and 40 and 31; Colony # (single well) (SVR cells [5]; [14]): 13 and 23 and 19 and 16; Colony # (single well) (SVR cells [5]; [15]): 0; Colony # (single well) (SVR cells [5]; [16]): 0; Colony # Average (SVR cells [5]; Experiment B, 0.5 mM, six days): 35.8; Colony # Average (SVR cells [5]; Experiment B, 1 mM, six days): 17.8; Colony # Average (SVR cells [5]; Experiment B, 2 mM, six days): 0.0; Colony # Average (SVR cells [5]; Experiment B, 4 mM, six days): 0.0; inhibition of SVR cell colony formation (SVR cells [5]; Experiment B): inhibited SVR cell colony formation
